22 compounds from patent publication US9340549B2, “Oxazolidinone compounds and derivatives thereof” (priority 2012, dated 2016) can be followed below.

Test [1] relates to Axin2 in SW480 cells. The test is described as follows: cells. Particulars: Homo sapiens, read-out: Axin2 384 IF EC50 IP. In kind it is cell-based. The protocol: Using a VPrep, 10 μL of compound/controls was transferred from the compound plate to 60 μL in the cell plate (final 0.5% DMSO, 70 μL). The mixture was incubated for 24 hours at 37° C. at 5% CO2.
The extra media was tapped out. 50 μL of 4% paraformaldehyde (Fisher, AA433689M), 0.1% Triton (Sigma, X100-100 ML) in PBS were added, and the mixture was incubated for 15 minutes at room temperature. […] The extra media was tapped out and to this was added 50 μL of buffer containing Axin2 Antibody (Sigma, SAB1100677-200 µL) at 1:10000 in PBS, 0.1% Tween-20, 1% Normal Goat Serum. The mixture was incubated for 2 hours at room temperature or overnight at 4° C. The cells were then washed twice with PBS, 0.1% Tween-20, and 1% Normal Goat Serum. […] The mixture was then incubated for 30 minutes at room temperature. The cells were then washed twice with PBS, 0.1% Tween-20, and 1% Normal Goat Serum. 50-100 μL PBS was added, and the mixture was covered with a plate seal (Fisher, NC9425162). An ArrayScan (a variation of the compartmental analysis protocol was optimized) was used to scan the plates, and data was analyzed using MEAN_RingSpotAvgIntenCh2). The Axin2 accumulation POC was calculated, and the EC50 was determined using Genedata Screener software to report Axin2 activity.

The target in test [2] is 6×HIS-tankyrase 1 (1091-1325) (Homo sapiens (Human), UniProt O95271). Put plainly: biochemical. In kind it is biochemical. Particulars: 400 nM NAD, 60 minutes at room temperature, read-out: TNKS1 IP IC50.
Test [3] has as its system total β-catenin in SW480 colorectal cells. Put plainly: cells. It counts as cell-based. Particulars: Homo sapiens. In outline:
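SW480 cells in growth medium (MEM alpha, 10% heat-inactivated FBS, 10 mM HEPES) treated with a 10-point, 3-fold dilution series of TNKS inhibitor for 40–48 h at 37 °C. Lysates run on an MSD sandwich immunoassay for total β-catenin, read by electrochemiluminescence.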

Setting [4] is: SW480, 24 h, SW480 cells, 24 hours.
Setting [5] is: SW480 cells, 40 to 48 hours, top concentration 10 μM, read-out: SW480-Total β-Catenin IC50 IP.
The mark [6] stands for this setting: SW480, read-out: SW480-Total β-Catenin IC50 IP.

Like-named read-outs stand apart in the source and are kept apart here.

Sequence of 6×HIS-tankyrase 1 (1091-1325) (O95271 1091-1325): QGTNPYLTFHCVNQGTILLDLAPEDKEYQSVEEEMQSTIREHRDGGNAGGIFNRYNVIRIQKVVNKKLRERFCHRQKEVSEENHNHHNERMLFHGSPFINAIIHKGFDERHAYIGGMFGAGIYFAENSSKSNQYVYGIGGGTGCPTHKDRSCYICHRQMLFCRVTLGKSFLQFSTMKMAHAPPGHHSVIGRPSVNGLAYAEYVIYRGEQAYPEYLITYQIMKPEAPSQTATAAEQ

As for `COc1cccc([C@H]2N(c3ccc(C(=O)Nc4cccc5cccnc45)cc3)C(=O)OC2(C)C)c1` [Example 106, (R)-4-(4-(3-Methoxyphenyl)-5,5-dimethyl-2-oxooxazolidin-3-yl)-N-(quinolin-8-yl)benzamide], in test [1] (setting [4]), the EC50 (as a rule, the midpoint of the concentration-response curve) was more than 25000 nM. Besides, the half-maximal inhibitory concentration (IC50) (in general, the midpoint of a concentration-inhibition curve) in test [2] ([…] enzyme) is 1880 nM; in test [3] (setting [5]) it was 6650 nM.
For `CC1(C)OC(=O)N(c2ccc(C(=O)Nc3cccc4cccnc34)cc2)[C@H]1c1ccc(F)cc1` [Example 2, (S)-4-(4-(4-fluorophenyl)-5,5-dimethyl-2-oxooxazolidin-3-yl)-N-(quinolin-8-yl)benzamide] the same measures were 5480 nM, 307 nM and 1960 nM.
Consider `CC1(C)OC(=O)N(c2ccc(-c3nnc4ccc(Cl)nn34)cc2)[C@H]1c1ccccc1` [Example 68, (S)-3-(4-(6-chloro-[1,2,4]triazolo[4,3-b]pyridazin-3-yl)phenyl)-5,5-dimethyl-4-phenyloxazolidin-2-one], for which, in test [1] (setting [4]), the EC50 was more than 25000 nM. Further, the results for the IC50 in test [2] ([…] enzyme) and in test [3] (setting [5]) were 1980 nM and more than 10000 nM, respectively.
`CC1(C)OC(=O)N([C@H]2CC[C@H](c3cc(-c4ncccn4)c[nH]c3=O)CC2)[C@H]1c1ccccc1` [Example 81, 3-(trans-4-((4S)-5,5-dimethyl-2-oxo-4-phenyl-1,3-oxazolidin-3-yl)cyclohexyl)-5-(2-pyrimidinyl)-2(1H)-pyridinone]: in test [1] (SW480, 24 h), the EC50 turned out to be 840 nM. For the same compound, the IC50 in test [2] ([…] enzyme) is 11.4 nM; in test [3] (setting [6]), 767 nM.
For the compound `CC1(C)OC(=O)N(c2ccc(-c3cc(-c4ccccn4)c[nH]c3=O)cc2)[C@H]1c1ccccc1` [Example 115, (S)-5,5-dimethyl-3-(4-(6′-oxo-1′,6′-dihydro-[2,3′-bipyridin]-5′-yl)phenyl)-4-phenyloxazolidin-2-one], the EC50 in test [1] (setting [4]) was determined as 4380 nM. Further, the half-inhibitory concentration (IC50) in test [2] ([…] enzyme) amounted to 95.3 nM; in test [3] (setting [5]) it was 1010 nM.
For the compound `CC1(C)OC(=O)N([C@H]2CC[C@H](c3nnc(-c4ccccc4)o3)CC2)C1c1ccccc1` (stereo partly drawn) [Example 84, 5,5-dimethyl-4-phenyl-3-((1r,4r)-4-(5-phenyl-1,3,4-oxadiazol-2-yl)cyclohexyl)oxazolidin-2-one], the 50% effective concentration (EC50) in test [1] (setting [4]) was 7600 nM. Moreover, the concentration for half-maximal inhibition (IC50) stood at 473 nM in test [2] ([…] enzyme) and 4940 nM in test [3] (setting [5]).
Consider `CCC1(CC)OC(=O)N(c2ccc(C(=O)Nc3cccc4cccnc34)cc2)[C@H]1c1ccccc1` [Example 43, (S)-4-(5,5-diethyl-2-oxo-4-phenyloxazolidin-3-yl)-N-(quinolin-8-yl)benzamide], for which the concentration for a half-maximal effect (EC50) in test [1] (SW480 cells, 24 hours) was more than 25000 nM. Besides, the figures for the concentration for half-maximal inhibition (IC50) in test [2] ([…] enzyme) and in test [3] (setting [5]) were 786 nM and more than 10000 nM, respectively.
With `Cc1ccccc1[C@@H]1N(c2ccc(C(=O)Nc3cccc4cccnc34)cc2)C(=O)OC1(C)C` [Example 41, (S)-4-(5,5-dimethyl-2-oxo-4-(o-tolyl)oxazolidin-3-yl)-N-(quinolin-8-yl)benzamide], in test [1] (setting [4]), the concentration giving a half-maximal response (EC50) was 4370 nM. Moreover, the IC50 was determined as 116 nM in test [2] ([…] enzyme) and 1980 nM in test [3] (setting [5]).
As to `CC1(C)OC(=O)N(c2ccc(C(=O)Nc3cccc4cccnc34)cc2)[C@H]1c1ccncc1` [Example 126, (S)-4-(5,5-dimethyl-2-oxo-4-(pyridin-4-yl)oxazolidin-3-yl)-N-(quinolin-8-yl)benzamide], the concentration giving a half-maximal response (EC50) in test [1] (setting [4]) is 4620 nM. For the same compound, the IC50 was 272 nM in test [2] ([…] enzyme) and 761 nM in test [3] (setting [6]).
For the compound `CC1(C)OC(=O)N(c2ccc(-c3cc(-c4ncccn4)ncc3F)cc2)[C@H]1c1ccccc1` [Example 129, (S)-3-(4-(5-fluoro-2-(pyrimidin-2-yl)pyridin-4-yl)phenyl)-5,5-dimethyl-4-phenyloxazolidin-2-one], in test [1] (setting [4]), the EC50 was more than 25000 nM. Besides, the values for the half-maximal inhibitory concentration (IC50) in test [2] ([…] enzyme) and in test [3] (setting [5]) were 1830 nM and more than 10000 nM, respectively.
`CC1(C)OC(=O)N(c2ccc(-c3cnc(N)c(-c4cnnc(Cl)c4)c3)cc2)[C@H]1c1ccccc1` (single isomer, unassigned) [Example 101]: the EC50 in test [1] (setting [4]) is 197 nM. Further, the half-inhibitory concentration (IC50) in test [2] ([…] enzyme) is 16.2 nM; in test [3] (setting [5]), 210 nM.
On to `CC1(C)OC(=O)N(c2ccc(N3C(=O)Cc4ccccc43)cc2)[C@H]1c1ccccc1` [Example 18, (S)-5,5-dimethyl-3-(4-(2-oxoindolin-1-yl)phenyl)-4-phenyloxazolidin-2-one], for which, in test [1] (setting [4]), the EC50 was more than 25000 nM. Further, the figures for the IC50 in test [2] ([…] enzyme) and in test [3] (setting [5]) were 973 nM and more than 10000 nM, respectively.
The like results for `CC1(C)OC(=O)N(c2ccc(C(=O)Nc3cccc4cccnc34)cc2)[C@H]1c1cccc(F)c1` [Example 110, (S)-4-(4-(3-fluorophenyl)-5,5-dimethyl-2-oxooxazolidin-3-yl)-N-(quinolin-8-yl)benzamide] were, in that order, 2700 nM, 193 nM and 1690 nM.
`CC1(C)OC(=O)N(c2ccc(-c3cc(-c4cccnc4)cnc3F)cc2)[C@H]1c1ccccc1` [Example 117, (S)-3-(4-(6-fluoro-[3,3′-bipyridin]-5-yl)phenyl)-5,5-dimethyl-4-phenyloxazolidin-2-one]: the concentration giving a half-maximal response (EC50) in test [1] (setting [4]) was determined as 5740 nM. Moreover, the concentration for half-maximal inhibition (IC50) in test [2] ([…] enzyme) worked out at 193 nM; in test [3] (setting [5]), 1050 nM.
Take `CC1(C)OC(=O)N([C@H]2CC[C@H](n3c(=O)[nH]c4cnc(C#N)cc43)CC2)[C@H]1c1ccccc1` [Example 54, 1-((1S,4r)-4-((S)-5,5-dimethyl-2-oxo-4-phenyloxazolidin-3-yl)cyclohexyl)-2-oxo-2,3-dihydro-1H-imidazo[4,5-c]pyridine-6-carbonitrile]: the 50% effective concentration (EC50) in test [1] (setting [4]) stood at 725 nM. Besides, the figures for the half-maximal inhibitory concentration (IC50) in test [2] ([…] enzyme) and in test [3] (setting [5]) were 7.42 nM and 605 nM, respectively.
`CC1(c2ccccc2)CN([C@H]2CC[C@H](n3c(=O)[nH]c4ccccc43)CC2)C(=O)O1` (stereo partly drawn) [Example 34, (R+S) 5-methyl-3-((1r,4r)-4-(2-oxo-2,3-dihydro-1H-benzo[d]imidazol-1-yl)cyclohexyl)-5-phenyloxazolidin-2-one]: the EC50 in test [1] (SW480 cells, 24 hours) came out at 2720 nM. Further, the IC50 in test [2] ([…] enzyme) amounted to 42.8 nM; in test [3] (setting [5]) it was 829 nM.
Turning to `CC1(C)OC(=O)N([C@H]2CC[C@H](c3cnc(N)c(Nc4ncccn4)c3)CC2)[C@@H]1c1ccccc1` [Example 13, (S)-3-((1r,4S)-4-(6-Amino-5-(pyrimidin-2-ylamino)pyridin-3-yl)cyclohexyl)-5,5-dimethyl-4-phenyloxazolidin-2-one], the half-maximal effective concentration (EC50) in test [1] (setting [4]) was more than 25000 nM. Moreover, the results for the IC50 in test [2] ([…] enzyme) and in test [3] (setting [5]) were 2060 nM and more than 10000 nM, respectively.
On to `O=C(Nc1cccc2cccnc12)c1ccc(N2C(=O)OC3(CCCC3)C2c2ccccc2)cc1` (stereo not drawn) [Example 45, (R+S) 4-(2-oxo-4-phenyl-1-oxa-3-azaspiro[4.4]nonan-3-yl)-N-(quinolin-8-yl)benzamide], for which, in test [1] (SW480, 24 h), the 50% effective concentration (EC50) was more than 25000 nM. Also, the IC50 was 1250 nM in test [2] ([…] enzyme) and more than 10000 nM in test [3] (setting [6]).
In the case of `CC1(C)OC(=O)N([C@H]2CC[C@@H](c3cnc(N)c(C4=NCCCN4)c3)CC2)[C@H]1c1ccccc1` [Example 76, (S)-3-((1s,4R)-4-(6-amino-5-(1,4,5,6-tetrahydropyrimidin-2-yl)pyridin-3-yl)cyclohexyl)-5,5-dimethyl-4-phenyloxazolidin-2-one], the half-maximal effective concentration (EC50) in test [1] (setting [4]) is more than 25000 nM. Also, the values for the IC50 in test [2] ([…] enzyme) and in test [3] (setting [5]) were 9840 nM and more than 10000 nM, respectively.
The like results for `CC1(C)OC(=O)N([C@H]2CC[C@H](N3Cc4cc(C#N)ccc4NC3=O)CC2)[C@H]1c1ccccc1` [Example 62, 3-((1S,4r)-4-((S)-5,5-dimethyl-2-oxo-4-phenyloxazolidin-3-yl)cyclohexyl)-2-oxo-1,2,3,4-tetrahydroquinazoline-6-carbonitrile] were, in that order, 147 nM, 7.63 nM and 438 nM.
For `CC1(C)OC(=O)N([C@H]2CC[C@H](c3c[nH]c(=O)c(-c4ncccn4)c3)CC2)[C@H]1c1ccccc1` [Example 97, (S)-5,5-Dimethyl-3-((1r,4S)-4-(6-oxo-5-(pyrimidin-2-yl)-1,6-dihydropyridin-3-yl)cyclohexyl)-4-phenyloxazolidin-2-one] the same measures were more than 25000 nM, 267 nM and 4430 nM.
As for `COc1cccc(C2N(c3ccc(C(=O)Nc4cccc5cccnc45)cc3)C(=O)OC2(C)C)c1` (racemic) [Example 105, (+/−)-(R/S)-4-(4-(3-methoxyphenyl)-5,5-dimethyl-2-oxooxazolidin-3-yl)-N-(quinolin-8-yl)benzamide], in test [1] (setting [4]), the EC50 was 8930 nM. The IC50 was found to be 152 nM in test [2] (0.25 nM enzyme) and 3250 nM in test [3] (setting [5]).
